Common to all, as to assay type: functional
In test [1] the test system is Streptococcus pyogenes. Kind of test: In vitro minimum inhibitory concentration against Streptococcus pyogenes EES61 using standard agar dilution method.
For test [2], the system named is Staphylococcus aureus. The test can be described thus: In vitro minimum inhibitory concentration against Staphylococcus aureus A5177.
The test system of test [3] is Streptococcus pyogenes. The test can be described thus: In vitro minimum inhibitory concentration against Streptococcus pyogenes 930 using standard agar dilution method.
Test [4] has as its system Staphylococcus aureus. The test can be described thus: In vitro minimum inhibitory concentration against Staphylococcus aureus 6538P using standard agar dilution method.
Test [5] has as its system Haemophilus influenzae. Kind of test: In vitro minimum inhibitory concentration against Haemophilus influenzae DILL using standard agar dilution method.
The test system of test [6] is Streptococcus pyogenes. Kind of test: In vitro minimum inhibitory concentration against Streptococcus pyogenes PIU 2548 using standard agar dilution method.
In test [7] the test system is Streptococcus pneumoniae. Kind of test: In vitro minimum inhibitory concentration against Streptococcus pneumoniae ATCC 6303.
Test [8] relates to Streptococcus pneumoniae. The test can be described thus: In vitro minimum inhibitory concentration against Streptococcus pneumoniae 5737.
The subject of test [9] is Streptococcus pneumoniae. Kind of test: In vitro minimum inhibitory concentration against Streptococcus pneumoniae 5649.

Values after ≈ are worked out from the molar mass of the structure shown. A value given as a limit tells only on which side of the number the result lay.

For the compound `CC[C@H]1OC(=O)[C@H](C)[C@@H](O[C@H]2C[C@@](C)(OC)[C@@H](O)[C@H](C)O2)[C@H](C)[C@@H](O[C@@H]2O[C@H](C)C[C@H](N(C)C)[C@H]2O)[C@@](C)(OCC2CO2)C[C@@H](C)C(=O)[C@H](C)[C@@H](O)[C@]1(C)O` (stereo partly specified), the MIC is 4 µg/mL (≈ 5.06 µM) in test [1]; 25 µg/mL (≈ 31.6 µM) in test [2]; > 128 µg/mL in test [3]; 25 µg/mL (≈ 31.6 µM) in test [4]; > 128 µg/mL in [5]; > 128 µg/mL in test [6].

For the compound `CC[C@H]1OC(=O)[C@H](C)[C@@H](O[C@H]2C[C@@](C)(OC)[C@@H](O)[C@H](C)O2)[C@H](C)[C@@H](O[C@@H]2O[C@H](C)C[C@H](N(C)C)[C@H]2O)[C@@](C)(OCCNCCCc2ccccc2)C[C@@H](C)C(=O)[C@H](C)[C@@H](O)[C@]1(C)O`, the MIC was 0.03 µg/mL (≈ 0.0335 µM) in test [1]; 3.1 µg/mL (≈ 3.46 µM) in test [2]; > 128 µg/mL in test [3]; 0.03 µg/mL (≈ 0.0335 µM) in test [7]; 0.05 µg/mL (≈ 0.0559 µM) in test [4]; 4 µg/mL (≈ 4.47 µM) in test [5]. In addition, the MIC in [8] is > 128 µg/mL; in test [6] it was 32 µg/mL (≈ 35.7 µM); in test [9], 16 µg/mL (≈ 17.9 µM).

With `CC[C@H]1OC(=O)C(C)[C@@H](O[C@H]2C[C@@](C)(OC)[C@@H](O)[C@H](C)O2)[C@H](C)[C@@H](O[C@@H]2O[C@H](C)C[C@H](N(C)C)[C@H]2O)[C@@](C)(OC/C=N/Oc2ccccc2)C[C@@H](C)C(=O)[C@H](C)[C@@H](O)[C@]1(C)O` (single isomer, unassigned), the MIC in [1] was found to be 0.008 µg/mL (≈ 0.00923 µM); in test [2], 3.1 µg/mL (≈ 3.58 µM); in [3], 128 µg/mL (≈ 148 µM); in test [7] it was 0.008 µg/mL (≈ 0.00923 µM); in test [4], 0.2 µg/mL (≈ 0.231 µM); in test [5] it was 4 µg/mL (≈ 4.61 µM). For the same compound, the MIC in [8] was determined as 128 µg/mL (≈ 148 µM); in test [6], 32 µg/mL (≈ 36.9 µM); in test [9] it was 16 µg/mL (≈ 18.5 µM).

Turning to `CC[C@H]1OC(=O)[C@H](C)[C@@H](O[C@H]2C[C@@](C)(OC)[C@@H](O)[C@H](C)O2)[C@H](C)[C@@H](O[C@@H]2O[C@H](C)C[C@H](N(C)C)[C@H]2O)[C@@](C)(OC/C=N/O)C[C@@H](C)C(=O)[C@H](C)[C@@H](O)[C@]1(C)O`, the MIC is 0.015 µg/mL (≈ 0.019 µM) in [1]; 0.06 µg/mL (≈ 0.0759 µM) in test [7]; 0.2 µg/mL (≈ 0.253 µM) in [4]; 16 µg/mL (≈ 20.2 µM) in test [5]; > 128 µg/mL in test [8]; 64 µg/mL (≈ 80.9 µM) in [6]. For the same compound, the MIC in test [9] worked out at 32 µg/mL (≈ 40.5 µM).

Regarding `CC[C@H]1OC(=O)[C@H](C)[C@@H](O[C@H]2C[C@@](C)(OC)[C@@H](O)[C@H](C)O2)[C@H](C)[C@@H](O[C@@H]2O[C@H](C)C[C@H](N(C)C)[C@H]2O)[C@@](C)(OCCO)C[C@@H](C)C(=O)[C@H](C)[C@@H](O)[C@]1(C)O`, the MIC in test [1] was 0.125 µg/mL (≈ 0.161 µM); in [2], 6.2 µg/mL (≈ 7.97 µM); in test [3] it was > 64 µg/mL; in test [7] it was 0.125 µg/mL (≈ 0.161 µM); in [4] it was 0.39 µg/mL (≈ 0.501 µM); in test [5], 8 µg/mL (≈ 10.3 µM). Also, the results for the MIC in test [8], in test [6] and in [9] were > 64 µg/mL, 64 µg/mL (≈ 82.3 µM) and 32 µg/mL (≈ 41.1 µM), respectively.

Consider `CC[C@H]1OC(=O)[C@H](C)[C@@H](O[C@H]2C[C@@](C)(OC)[C@@H](O)[C@H](C)O2)[C@H](C)[C@@H](O[C@@H]2O[C@H](C)C[C@H](N(C)C)[C@H]2O)[C@](C)(O)C[C@@H](C)C(=O)[C@H](C)[C@@H](O)[C@]1(C)O` [ERYTHROMYCIN], for which the MIC was 0.03 µg/mL (≈ 0.0409 µM) in [1]; 6.2 µg/mL (≈ 8.45 µM) in [2]; > 128 µg/mL in test [3]; 0.06 µg/mL (≈ 0.0818 µM) in test [7]; 0.2 µg/mL (≈ 0.273 µM) in test [4]; 4 µg/mL (≈ 5.45 µM) in test [5]. Besides, the MIC in [8] is > 128 µg/mL; in test [6], 32 µg/mL (≈ 43.6 µM); in test [9], 16 µg/mL (≈ 21.8 µM).

Turning to `CC[C@H]1OC(=O)[C@H](C)[C@@H](O[C@H]2C[C@@](C)(OC)[C@@H](O)[C@H](C)O2)[C@H](C)[C@@H](O[C@@H]2O[C@H](C)C[C@H](N(C)C)[C@H]2O)[C@@](C)(OCCNCc2ccccc2)C[C@@H](C)C(=O)[C@H](C)[C@@H](O)[C@]1(C)O`, the MIC in test [1] is 0.25 µg/mL (≈ 0.288 µM); in test [2], 12.5 µg/mL (≈ 14.4 µM); in test [3], > 128 µg/mL; in test [7], 0.125 µg/mL (≈ 0.144 µM); in test [4], 0.78 µg/mL (≈ 0.9 µM); in [5], 8 µg/mL (≈ 9.23 µM). The MIC in test [8] was > 128 µg/mL; in [6], 64 µg/mL (≈ 73.8 µM); in [9], 32 µg/mL (≈ 36.9 µM).

As for `C#CCO[C@@]1(C)C[C@@H](C)C(=O)[C@H](C)[C@@H](O)[C@](C)(O)[C@@H](CC)OC(=O)[C@H](C)[C@@H](O[C@H]2C[C@@](C)(OC)[C@@H](O)[C@H](C)O2)[C@H](C)[C@H]1O[C@@H]1O[C@H](C)C[C@H](N(C)C)[C@H]1O`, the MIC in test [1] was 0.03 µg/mL (≈ 0.0389 µM); in [2], 12.5 µg/mL (≈ 16.2 µM); in test [3] it was > 128 µg/mL; in [7] it was 0.06 µg/mL (≈ 0.0777 µM); in test [4], 0.2 µg/mL (≈ 0.259 µM); in [5], 16 µg/mL (≈ 20.7 µM). For the same compound, the MIC in [8] was > 128 µg/mL; in test [9], 16 µg/mL (≈ 20.7 µM).

For the compound `CC[C@H]1OC(=O)[C@H](C)[C@@H](O[C@H]2C[C@@](C)(OC)[C@@H](O)[C@H](C)O2)[C@H](C)[C@@H](O[C@@H]2O[C@H](C)C[C@H](N(C)C)[C@H]2O)[C@@](C)(OCC(O)CNCc2ccccc2)C[C@@H](C)C(=O)[C@H](C)[C@@H](O)[C@]1(C)O` (stereo partly specified), the MIC in test [1] was 0.125 µg/mL (≈ 0.139 µM); in test [2], 6.2 µg/mL (≈ 6.91 µM); in test [7] it was 0.125 µg/mL (≈ 0.139 µM); in test [4], 0.39 µg/mL (≈ 0.435 µM); in [5] it was 8 µg/mL (≈ 8.92 µM); in [8] it was > 128 µg/mL. Also, the MIC in [9] amounted to 64 µg/mL (≈ 71.3 µM).

For `C=CCO[C@@]1(C)C[C@@H](C)C(=O)[C@H](C)[C@@H](O)[C@](C)(O)[C@@H](CC)OC(=O)[C@H](C)[C@@H](O[C@H]2C[C@@](C)(OC)[C@@H](O)[C@H](C)O2)[C@H](C)[C@H]1O[C@@H]1O[C@H](C)C[C@H](N(C)C)[C@H]1O`, the MIC was 12.5 µg/mL (≈ 16.1 µM) in test [2]; > 128 µg/mL in test [3]; 0.78 µg/mL (≈ 1.01 µM) in test [4]; 32 µg/mL (≈ 41.3 µM) in test [5]; 64 µg/mL (≈ 82.7 µM) in [6].

As for `CC[C@H]1OC(=O)[C@H](C)[C@@H](O[C@H]2C[C@@](C)(OC)[C@@H](O)[C@H](C)O2)[C@H](C)[C@@H](O[C@@H]2O[C@H](C)C[C@H](N(C)C)[C@H]2O)[C@@](C)(OCc2ccccc2)C[C@@H](C)C(=O)[C@H](C)[C@@H](O)[C@]1(C)O`, the MIC in test [1] was 0.06 µg/mL (≈ 0.0728 µM); in test [2] it was 12.5 µg/mL (≈ 15.2 µM); in test [3], > 128 µg/mL; in [4] it was 1.56 µg/mL (≈ 1.89 µM); in test [8], 64 µg/mL (≈ 77.7 µM); in [6], 16 µg/mL (≈ 19.4 µM). For the same compound, in test [9], the MIC is 16 µg/mL (≈ 19.4 µM).

On to `CC[C@H]1OC(=O)[C@H](C)[C@@H](O[C@H]2C[C@@](C)(OC)[C@@H](O)[C@H](C)O2)[C@H](C)[C@@H](O[C@@H]2O[C@H](C)C[C@H](N(C)C)[C@H]2O)[C@@](C)(OCC#N)C[C@@H](C)C(=O)[C@H](C)[C@@H](O)[C@]1(C)O`, for which the MIC is 0.03 µg/mL (≈ 0.0388 µM) in test [1]; > 128 µg/mL in test [3]; 0.06 µg/mL (≈ 0.0776 µM) in test [7]; 0.2 µg/mL (≈ 0.259 µM) in [4]; 8 µg/mL (≈ 10.3 µM) in test [5]; > 128 µg/mL in test [8]. Moreover, the values for the MIC in test [6] and in test [9] were 32 µg/mL (≈ 41.4 µM) and 16 µg/mL (≈ 20.7 µM), respectively.

Regarding `CC[C@H]1OC(=O)[C@H](C)[C@@H](O[C@H]2C[C@@](C)(OC)[C@@H](O)[C@H](C)O2)[C@H](C)[C@@H](O[C@@H]2O[C@H](C)C[C@H](N(C)C)[C@H]2O)[C@@](C)(OCC(C)=O)C[C@@H](C)C(=O)[C@H](C)[C@@H](O)[C@]1(C)O`, the MIC in [3] was > 128 µg/mL; in test [4] it was 3.1 µg/mL (≈ 3.92 µM); in [6], 128 µg/mL (≈ 162 µM).

Values taken from ChEMBL document CHEMBL1133079, “Synthesis and antibacterial activity of novel 6-O-substituted erythromycin A derivatives” (2000).
